Assay results: US9943528B2 (MAPREG, priority 2016, dated 2018)

How the values were obtained:
[1] = tested on: Wistar Kyoto (WKY) rats; assay: Neurogenesis in dentate gyrus of hippocampus (BrdU/NeuN) in WKY rats; assay type: in vivo, rat; conditions: chronic MAP4343 15 mg/kg, s.c., 24 days, FIG. 9C
Procedure: Wistar Kyoto (WKY) rats are considered as a model of treatment-resistant depression, while Wistar (WI) rats are used as control strain of WKY rats. During this experiment both WI and WKY rats were administered with MAP4343 (15 mg/Kg), subcutaneously (s.c.) for 24 days. Behavioral tests were performed at during the last week of treatment, and rats were finally sacrificed for addressing neurogenesis in Gyrus dentate of hippocampus using histological experiments. Organization of this protocol is depicted in FIG. 7.
MAP4343 was diluted in sesame oil, and then administered subcutaneously (s.c.) at the dose of 15 mg/kg during 24 days. The vehicle group received only the sesame oil (1 ml/kg) in the similar conditions.
Injections of BrdU were performed twice at D0, 24 and 22 hours before the beginning of treatment. All animals were equally given two injections of BrdU (75 mg/kg, dissolved in saline solution intraperitoneally), at two hours pulse-chase interval. […]
Neurogenesis in each dentate gyrus was manually measured by quantification of positive cells co-labelled with BrdU/NeuN, using a microscope equipped with epifluorescence (Zeiss Axiovert 200, objective 40×). Total number of new neurons in the entire dentate gyrus was estimated by multiplying the measured number by 8 (that corresponds to the number of unused sections separating each coronal sections used to count the newly-formed neurons). […]

[2] = tested on: Noradrenergic α2; assay: CNS receptor binding assay, α2; conditions: MAP4343 10 μM; [3H] RX 821002; rat cerebral cortex
Source text: (§1) MAP4343 has been screened for in vitro affinity to 80 different CNS neurotransmitters receptors using various validated binding assays.

[3] = tested on: 80 different CNS neurotransmitters receptors; assay: Screen for in vitro affinity to 80 different CNS neurotransmitters receptors; conditions: 80 CNS neurotransmitters receptors, validated binding assays
Source text: as §1

CO[C@H]1CC[C@@]2(C)C(=CC[C@H]3[C@@H]4CC[C@H](C(C)=O)[C@@]4(C)CC[C@@H]32)C1 [MAP4343, 3β-methoxy-pregna-5-ene-20-one]
number of newly-formed neurons (BrdU and Neu-N) in dentate gyrus, change vs WKY receiving only vehicle [1]: +71% | % Inhibition of control specific binding [2]: 7% | in vitro affinity for the tested receptors [3]: no significant affinity for any tested receptor
